PubChem BioAssay AID330 (DTP/NCI, 2004)
Values joined by “and” are separate entries in the source; they are usually repeats but may differ in a detail not shown here. Equal entries are not always repeated. Inconclusive results and toxic doses are left out. The calls were made as follows: active = survival T/C of 150% or more; inactive = T/C below 125% in these data.

System: P388 leukemia ip, CD2F1 mice, survival T/C
Assay: NCI In Vivo Anticancer Drug Screen. Data for tumor model P388 Leukemia (intraperitoneal) in CD2F1 (CDF1) mice
Conditions: endpoint: median survival time, higher = longer survival
In short: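 Mice carrying the transplanted tumor received test compound or vehicle. Survival was recorded in each group, and the value is the treated-group measurement divided by that of the vehicle-treated control group.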

[1] = dose: 50.0 mg/kg/injection, schedule: Q01DX009 (ip), vehicle: saline
[2] = dose: 100.0 mg/kg/injection, schedule: Q01DX009 (ip), vehicle: saline
[3] = dose: 200.0 mg/kg/injection, schedule: Q01DX009 (ip), vehicle: saline
[4] = dose: 12.5 mg/kg/injection, schedule: Q01DX009 (ip), vehicle: saline with Tween-80
[5] = dose: 25.0 mg/kg/injection, schedule: Q01DX009 (ip), vehicle: saline with Tween-80
[6] = dose: 50.0 mg/kg/injection, schedule: Q01DX009 (ip), vehicle: saline with Tween-80
[7] = dose: 100.0 mg/kg/injection, schedule: Q01DX009 (ip), vehicle: saline with Tween-80
[8] = dose: 25.0 mg/kg/injection, schedule: Q01DX005 (ip), vehicle: Klucel (hydroxypropylcellulose) (HPC)
[9] = dose: 50.0 mg/kg/injection, schedule: Q01DX005 (ip), vehicle: Klucel (hydroxypropylcellulose) (HPC)
[10] = dose: 50.0 mg/kg/injection, schedule: Q01DX005 (ip), vehicle: saline with Tween-80
[11] = dose: 60.0 mg/kg/injection, schedule: Q01DX005 (ip), vehicle: saline with Tween-80
[12] = dose: 120.0 mg/kg/injection, schedule: Q01DX005 (ip), vehicle: saline with Tween-80
[13] = dose: 240.0 mg/kg/injection, schedule: Q01DX005 (ip), vehicle: saline with Tween-80
[14] = dose: 100.0 mg/kg/injection, schedule: Q01DX005 (ip), vehicle: saline with Tween-80
[15] = dose: 200.0 mg/kg/injection, schedule: Q01DX005 (ip), vehicle: saline with Tween-80

Measured: T/C

NC(CC(=O)O)C(=O)OCc1ccccc1 (configuration not stated)
inactive: dose: 25.0 mg/kg/injection, schedule: Q01DX009 (ip), vehicle: saline 97 % of control | [1] 100 % of control | [2] 100 % of control | [3] 98 % of control

CCC(C(=O)NNC(=O)c1cc(OC)c(OC)c(OC)c1)c1ccccc1 (configuration not stated)
inactive: [4] 105 % of control | [5] 97 % of control | [6] 98 % of control | [7] 98 % of control

O=C1NC(Cc2ccccc2)C(=O)NC1Cc1ccccc1 (configuration not stated)
inactive: dose: 3.13 mg/kg/injection, schedule: Q01DX009 (ip), vehicle: saline with Tween-80 86 % of control | dose: 6.25 mg/kg/injection, schedule: Q01DX009 (ip), vehicle: saline with Tween-80 100 % of control | [4] 107 % of control | dose: 25.0 mg/kg/injection, schedule: Q01DX009 (ip), vehicle: Klucel (hydroxypropylcellulose) (HPC) 101 % of control | [5] 103 % of control | dose: 50.0 mg/kg/injection, schedule: Q01DX009 (ip), vehicle: Klucel (hydroxypropylcellulose) (HPC) 104 % of control

O=S(=O)(O)Sc1ncnc2nc[nH]c12
inactive: [1] 108 % of control | dose: 75.0 mg/kg/injection, schedule: Q04DX003 (ip), vehicle: saline 100 % of control | [2] 122 % of control | dose: 150.0 mg/kg/injection, schedule: Q04DX003 (ip), vehicle: saline 98 % of control | [3] 108 % of control | dose: 300.0 mg/kg/injection, schedule: Q04DX003 (ip), vehicle: saline 108 % of control

CC(=O)OCC1OC(N(C(C)=O)c2nc(Cl)c3cc[nH]c3n2)C(OC(C)=O)C1OC(C)=O (configuration not stated)
inactive: dose: 25.0 mg/kg/injection, schedule: Q04DX003 (ip), vehicle: other 102 % of control | dose: 50.0 mg/kg/injection, schedule: Q04DX003 (ip), vehicle: other 105 % of control | dose: 100.0 mg/kg/injection, schedule: Q04DX003 (ip), vehicle: other 105 % of control | dose: 200.0 mg/kg/injection, schedule: Q04DX003 (ip), vehicle: other 104 % of control | dose: 400.0 mg/kg/injection, schedule: Q04DX003 (ip), vehicle: other 108 % of control

CC(=O)OCCCCCCCCCCCCCCCCCC1=C(C)C(=O)OC1=O
inactive: [8] 96 % of control | [9] 97 % of control | dose: 100.0 mg/kg/injection, schedule: Q01DX005 (ip), vehicle: Klucel (hydroxypropylcellulose) (HPC) 103 % of control | dose: 200.0 mg/kg/injection, schedule: Q01DX005 (ip), vehicle: Klucel (hydroxypropylcellulose) (HPC) 99 % of control | dose: 400.0 mg/kg/injection, schedule: Q01DX005 (ip), vehicle: Klucel (hydroxypropylcellulose) (HPC) 92 % of control

CC(/C=N/NC(=O)C[n+]1ccccc1)=N/NC(=O)C[n+]1ccccc1
inactive: dose: 3.12 mg/kg/injection, schedule: Q01DX005 (ip), vehicle: saline 96 % of control and 98 % of control | dose: 6.25 mg/kg/injection, schedule: Q01DX005 (ip), vehicle: saline 97 % of control and 98 % of control | dose: 12.5 mg/kg/injection, schedule: Q01DX005 (ip), vehicle: saline 99 % of control and 97 % of control | dose: 25.0 mg/kg/injection, schedule: Q01DX005 (ip), vehicle: saline 99 % of control and 101 % of control | [10] 95 % of control

Clc1ccc(-c2n[se]c(-c3ccc(Cl)cc3)n2)cc1
inactive: [5] 87 % of control | [6] 89 % of control

COc1cccc(CN2C(=O)NC(C)(C)C2O)c1 (configuration not stated)
inactive: [11] 99 % of control | [12] 101 % of control | [13] 101 % of control

CCc1cc(-c2cc(CC)on2)no1
inactive: dose: 60.0 mg/kg/injection, schedule: Q01DX005 (ip), vehicle: saline 103 % of control | dose: 120.0 mg/kg/injection, schedule: Q01DX005 (ip), vehicle: saline 100 % of control | dose: 240.0 mg/kg/injection, schedule: Q01DX005 (ip), vehicle: saline 91 % of control

COc1cc2c(c(-c3cn(C)c4ccccc34)c1OC)OCO2
inactive: [11] 97 % of control | [12] 98 % of control | [13] 97 % of control

ClCCN(CCCl)CCCN1c2ccccc2Sc2ccccc21
inactive: dose: 3.12 mg/kg/injection, schedule: Q01DX009 (ip), vehicle: saline with Tween-80 122 % of control

O=C1C2C3C=CC(O3)C2C(=O)N1CCN1CCOCC1 (configuration not stated)
inactive: dose: 25.0 mg/kg/injection, schedule: Q01DX005 (ip), vehicle: water 96 % of control | dose: 50.0 mg/kg/injection, schedule: Q01DX005 (ip), vehicle: water 97 % of control | dose: 100.0 mg/kg/injection, schedule: Q01DX005 (ip), vehicle: other 93 % of control | dose: 100.0 mg/kg/injection, schedule: Q01DX005 (ip), vehicle: water 102 % of control | dose: 200.0 mg/kg/injection, schedule: Q01DX005 (ip), vehicle: other 101 % of control

Cc1ccccc1Nc1ccnc2c1ccc1ccccc12
inactive: [10] 88 % of control | [14] 92 % of control | [15] 88 % of control

N#Cc1cnn(-c2cc(Cl)ccc2Cl)c1N
inactive: [6] 99 % of control and 95 % of control and 98 % of control | [7] 101 % of control and 103 % of control and 92 % of control | dose: 200.0 mg/kg/injection, schedule: Q01DX009 (ip), vehicle: saline with Tween-80 104 % of control and 105 % of control and 123 % of control

Cc1cc(=O)oc2cc(OC(=O)Nc3ccc(Cl)cc3C(F)(F)F)ccc12
inactive: [11] 90 % of control | [12] 95 % of control

CC(C)(C)C(=O)CP(=O)(O)O (tested in a mixture with another compound)
inactive: [1] 105 % of control | [2] 101 % of control

COc1cc(C)c2c(OC)c(C)c(=O)oc2c1OC
inactive: dose: 6.25 mg/kg/injection, schedule: Q01DX005 (ip), vehicle: Klucel (hydroxypropylcellulose) (HPC) 105 % of control | dose: 12.5 mg/kg/injection, schedule: Q01DX005 (ip), vehicle: Klucel (hydroxypropylcellulose) (HPC) 100 % of control | [8] 97 % of control | [9] 104 % of control

C/C(=N\NC(=S)Nc1nccs1)c1nccc2ccccc12
inactive: [10] 100 % of control | [14] 114 % of control | [15] 122 % of control

c1ccc(C2OCCN2c2ccccc2)cc1 (configuration not stated)
inactive: dose: 12.5 mg/kg/injection, schedule: Q01DX001 (ip), vehicle: saline with Tween-80 107 % of control | dose: 25.0 mg/kg/injection, schedule: Q01DX001 (ip), vehicle: saline with Tween-80 107 % of control | dose: 50.0 mg/kg/injection, schedule: Q01DX001 (ip), vehicle: saline with Tween-80 107 % of control | dose: 100.0 mg/kg/injection, schedule: Q01DX001 (ip), vehicle: saline with Tween-80 101 % of control

COc1ccc(C2OC3=Nc4ccccc4NC3C2=O)cc1OC (configuration not stated)
inactive: dose: 60.0 mg/kg/injection, schedule: Q01DX005 (ip), vehicle: Klucel (hydroxypropylcellulose) (HPC) 107 % of control | dose: 120.0 mg/kg/injection, schedule: Q01DX005 (ip), vehicle: Klucel (hydroxypropylcellulose) (HPC) 105 % of control | dose: 240.0 mg/kg/injection, schedule: Q01DX005 (ip), vehicle: Klucel (hydroxypropylcellulose) (HPC) 100 % of control

CC1C(=O)OC2CCN3CC4OC4(COC(=O)C(C)(O)C1(C)O)C23 (configuration not stated)
inactive: dose: 132.0 mg/kg/injection, schedule: Q04DX003 (ip), vehicle: saline with Tween-80 90 % of control | dose: 200.0 mg/kg/injection, schedule: Q04DX003 (ip), vehicle: saline with Tween-80 110 % of control | dose: 300.0 mg/kg/injection, schedule: Q04DX003 (ip), vehicle: saline with Tween-80 100 % of control

O=C1CC(=O)N(C2CCCCC2)C(=O)N1c1ccccc1S(=O)(=O)Oc1ccccc1
inactive: [10] 103 % of control | [14] 101 % of control | [15] 103 % of control
